Measured values published in BigSolDB 2.1.

Nc1ccc(Cc2ccc(N)c(Cl)c2)cc1Cl
solubility (mole fraction)
Conditions	283.15 K	288.15 K	293.15 K	298.15 K	303.15 K	308.15 K	313.15 K	318.15 K	323.15 K	328.15 K
in 1,4-dioxane	–	0.206	0.217	0.236	0.258	0.285	0.32	0.354	0.394	0.443
in DMAc	0.339	0.348	0.366	0.384	0.41	0.436	0.466	0.502	0.548	0.587
in DMF	0.306	0.316	0.33	0.347	0.373	0.396	0.425	0.462	0.502	0.545
in acetonitrile	0.0208	0.0225	0.0251	0.0283	0.0323	0.0367	0.0419	0.048	0.0574	0.0671
in ethanol	0.0223	0.0242	0.0272	0.0314	0.0362	0.0424	0.049	0.057	0.0677	0.0803
in ethyl acetate	0.115	0.123	0.134	0.146	0.162	0.177	0.196	0.223	0.254	0.287
in ethylene glycol	0.0057	0.00624	0.00816	0.00975	0.0123	0.0148	0.0181	0.0208	0.0239	0.0281
in isobutanol	0.0136	0.015	0.0172	0.0197	0.0227	0.0259	0.0301	0.0357	0.0426	0.0513
in isopropanol	0.0189	0.0203	0.0226	0.0261	0.0294	0.0336	0.039	0.0447	0.0532	0.0623
in methanol	0.0163	0.018	0.02	0.0231	0.026	0.0297	0.0347	0.0405	0.048	0.0565
in n-butanol	0.0298	0.0323	0.037	0.0425	0.0484	0.0551	0.0632	0.0737	0.0873	0.105
in n-propanol	0.0257	0.0278	0.0322	0.0369	0.0422	0.0484	0.0562	0.066	0.0783	0.094
in water	0.00014	0.000172	0.000228	0.000286	0.000342	0.000409	0.000475	0.000559	0.000684	0.000842
